Where two headings read alike, the source gives them in different places.
Experiments:
[1] = target: T1, E. coli GroEL/ES (Escherichia coli, UniProt P0A6F5); assay: GroEL/ES-mediated dMDH refolding assay; assay type: biochemical; conditions: for inhibition in the GroEL/ES-mediated refolding assays (in words): dMDH and dRho refolding assays
T1 construct: made in house; host or cells: GroEL in E. coli DH5α; GroES in E. coli BL21 (DE3)
Experimental: Reagent preparation: For these assays, four primary reagent stocks were prepared: 1) GroEUES-dMDH or HSP60/10-dMDH binary complex stock; 2) ATP initiation stock; 3) EDTA quench stock; 4) MDH enzymatic assay stock. Denatured MDH (dMDH) was prepared by 2-fold dilution of MDH (5 mg/ml, soluble pig heart MDH from Roche, product #10127248001) with denaturant buffer (7 M guanidine-HCl, 200 mM Tris, pH 7.4, and 50 mM DTT). MDH was completely denatured by incubating at room temperature for 45 min. The binary complex solutions were prepared by slowly adding the dMDH stock to a stirring stock with GroEL (or HSP60) in folding buffer (50 mM Tris-HCl, pH 7.4, 50 mM KCl, 10 mM MgCl2, and 1 mM DTT), followed by addition of GroES (or HSP10). The binary complex stocks were prepared immediately prior to dispensing into the assay plates and had final protein concentrations of 83.3 nM GroEL (Mr 800 kDa) or HSP60 (Mr 400 kDa), 100 nM GroES or HSP10 (Mr 70 kDa), and 20 nM dMDH in folding buffer. For the ATP initiation stock, ATP solid was diluted into folding buffer to a final concentration of 2.5 mM. Quench solution contained 600 mM EDTA (pH 8.0). The MDH enzymatic assay stock consisted of 20 mM sodium mesoxalate and 2.4 mM NADH in reaction buffer (50 mM Tris-HCl, pH 7.4, 50 mM KCl, and 1 mM DTT).
Assay Protocol: First, 30 μL aliquots of the GroEL/ES-dMDH or HSP60/10-dMDH binary complex stocks were dispensed into clear, 384-well polystyrene plates. […] The chaperonin-mediated refolding cycles were initiated by addition of 20 μL of ATP stock (reagent concentrations during refolding cycle: 50 nM GroEL or HSP60, 60 nM GroES or HSP10, 12 nM dMDH, 1 mM ATP, and compounds of 100 μM to 46 nM, 3-fold dilution series). The refolding reactions were incubated at 37° C. […] Next, the assay was quenched by addition of 10 μL of the EDTA to final concentration of 100 mM. […] A340 nm measurements were recorded at 0.5 minutes (start point) and at successive time points until the amount of NADH consumed reached ˜90% (end point, generally between 20-35 minutes). The differences between the start and end point A340 values were used to calculate the % inhibition of the GroEL/ES or HSP60/10 machinery by the compounds. […] Results presented represent the averages of IC50 values obtained from at least quadriplicate (duplicate of duplicate) replicates.
After generating the compound library, we next employed a series of well-established biochemical assays to evaluate compound inhibitory effects against the GroEUES chaperonin system (See FIG. 6 and FIG. 7). We used E. coli GroEUES as the surrogate chaperonin system for refolding of the reporter enzymes malate dehydrogenase (MDH) and rhodanese (Rho). Briefly, binary complexes are formed between GroEL and denatured MDH or Rho, which are then refolded to their native states upon addition of ATP and the GroES co-chaperonin. Enzymatic activities of refolded native MDH or Rho act as coupled reporters of GroEUES refolding functions since in the presence of chaperonin inhibitors, no functional reporter enzymes are generated.

[2] = system: S. aureus Rosenbach (ATCC 25923) biofilm formation; assay: S. aureus biofilm prevention assay (crystal violet); assay type: cell-based; conditions: Staphylococcus aureus, read-out: S. aureus Proliferation & Biofilm Assay EC50 Preventing Biofilm Formation
Experimental: The biofilm prevention assay was carried out with S. aureus Rosenbach (ATCC 25923) using a quantitative crystal violet-based adherence assay on 96-well plates. S. aureus (ATCC 25923) bacteria were streaked onto a Tryptic Soy Broth (TSB) agar plate and grown overnight at 37° C. A fresh aliquot of TSB media was inoculated with a single bacterial colony and the cultures were grown overnight at 37° C. with shaking (250 rpm). The overnight culture was then sub-cultured (1:5 dilution) into a fresh aliquot of TSB media supplemented to a final concentration of 0.5% glucose and grown at 37° C. for 1 h with shaking, then diluted into fresh TSB media supplemented with 0.5% glucose to achieve a final OD600 reading of 0.01. Aliquots of the diluted culture (100 μL) were dispensed to 96 well polystyrene plates along with addition of 1 μL test compounds in DMSO. The inhibitor concentration range during the assay was 100 μM to 46 nM (3-fold dilution series). A second set of baseline control plates were prepared analogously, but without any bacteria added, to correct for possible compound absorbance and/or precipitation. Plates were sealed with “Breathe Easy” oxygen permeable membranes (Diversified Biotech) and left to incubate at 37° C. without shaking (stagnant assay) until the biofilm was formed. After 24 h, the planktonic cultures were removed and the plates were washed gently 2-3 times with 200 μl of water. Next, the plates were air dried and the adherent biofilms were stained with 150 μL of crystal violet solution (2.3% crystal violet in 20% Ethanol, Sigma Aldrich #HT90132) for 15 minutes at R.T. The unbound crystal violet stain was removed, then plates were gently washed again with running water and air dried for 10 min. Quantitative assessment of biofilm formation was obtained by adding 100 μL of developer solution (4:1:5 mixture of MeOH:AcOH:H2O) per well. Well absorbance was then read at 595 nm using a Molecular Devices SpectraMax Plus384 microplate reader. […] Results presented represent the averages of EC50 values obtained from at least triplicate experiments.
Establishing biofilms is another effective mechanism by which S. aureus can evade the effects of many current antibiotics, including vancomycin. […] Briefly, test compounds (1, 2, 5, 8, 11, and vancomycin) were incubated with S. aureus bacteria in media supplemented with 0.5% glucose (to support biofilm formation) for 24 h at 37° C. After 24 h, the supernatant was removed, the wells were gently washed, and the biofilm that had formed on the well surfaces were stained with crystal-violet and quantified by UV-Vis spectroscopy.

[3] = system: THLE-3 liver cells; assay: Liver cell viability assay (Alamar Blue); conditions: read-out: Human Cell Viability CC50, Liver (THLE-3); THLE-3 liver cells, Alamar Blue, 48 h
Experimental: (§1) HEK 293 cells were maintained in MEM medium (Corning Cellgro, 10-009 CV) supplemented with 10% FBS (Sigma, F2242). […] Cells at 80% confluence were harvested and diluted in growth medium, then 45 μL of the THLE-3 cells (1,500 cells/well) or HEK 293 cells (1,500 cells/well) were dispensed per well, and plates were sealed with “Breathe Easy” oxygen permeable membranes (Diversified Biotech) and incubated at 37° C., 5% CO2, for 24 h.

[4] = system: HEK 293 kidney cells; assay: Kidney cell viability assay (Alamar Blue); conditions: read-out: Human Cell Viability CC50, Kidney (HEK 293); HEK 293 kidney cells, Alamar Blue, 48 h
Experimental: as §1

[5] = log of IC50 (μM scale), with standard deviation
[6] = read-out: Biochemical Assay IC50 GroEL/ES-dMDH refolding

T1 sequence (P0A6F5 2-548): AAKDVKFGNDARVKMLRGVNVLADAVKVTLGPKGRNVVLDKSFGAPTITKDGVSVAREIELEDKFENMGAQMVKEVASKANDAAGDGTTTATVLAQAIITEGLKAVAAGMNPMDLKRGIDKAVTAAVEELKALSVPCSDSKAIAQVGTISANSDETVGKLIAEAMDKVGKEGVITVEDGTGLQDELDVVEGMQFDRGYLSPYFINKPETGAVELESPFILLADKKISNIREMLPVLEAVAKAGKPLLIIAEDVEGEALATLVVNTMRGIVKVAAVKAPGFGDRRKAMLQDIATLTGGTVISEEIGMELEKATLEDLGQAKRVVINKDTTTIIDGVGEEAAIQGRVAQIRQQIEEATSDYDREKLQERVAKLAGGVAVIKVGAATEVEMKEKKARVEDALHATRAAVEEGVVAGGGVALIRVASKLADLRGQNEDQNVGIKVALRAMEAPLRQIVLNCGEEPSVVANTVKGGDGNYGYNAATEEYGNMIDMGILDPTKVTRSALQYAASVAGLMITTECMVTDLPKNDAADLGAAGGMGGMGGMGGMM

`O=C(Nc1ccc(Sc2nc3ccccc3s2)c(Cl)c1)c1cc(Br)cc(Br)c1O` [Compound 1, N-(4-(Benzo[d]thiazol-2-ylthio)-3-chlorophenyl)-3,5-dibromo-2-hydroxybenzamide] was tested, and the “log(IC50) GroEL/ES-dMDH Refolding” value [1, 5] was 0.23 ± 0.28, the IC50 [1, 6] was 1.7 µM and the EC50 ([2]; ATCC25923, 24 h) was 0.72 µM.

For `O=C(Nc1ccccc1)c1cc(Br)cc(Br)c1O` [Compound 13, 3,5-Dibromo-2-hydroxy-N-phenylbenzamide], the CC50 [3] was 25 µM, the CC50 [4] was 34 µM and the “log(IC50) GroEL/ES-dMDH Refolding” value [1, 5] was 1.79 ± 0.10. The IC50 [1, 6] was 61 µM.

In the case of `O=C(Nc1ccc(Oc2ccc(Cl)cc2)c(Cl)c1)c1cc(I)cc(I)c1O` [Rafoxanide, rafoxanide, reference compound], the CC50 [3] is reported as 24 µM, the CC50 [4] is reported as > 100 µM and the “inhibition in the GroEL/ES-mediated refolding assays (in words)” value [1] is reported as “potent GroEUES inhibitors”. The IC50 ([1]; log of IC50 (μM scale), with standard deviation, read-out: log(IC50) GroEL/ES-dMDH Refolding (converted)) was 4.37 µM and the IC50 [1, 6] was 4.3 µM.

In the case of `CC1(C)S[C@@H]2[C@H](NC(=O)[C@H](N)c3ccccc3)C(=O)N2[C@H]1C(=O)O` [Ampicillin, ampicillin, reference compound], the CC50 [3] is reported as > 100 µM, the CC50 [4] is reported as > 100 µM and the “log(IC50) GroEL/ES-dMDH Refolding” value [1, 5] is reported as >2. The IC50 [1, 6] was > 100 µM.

With `Cc1cc(C(C#N)c2ccc(Cl)cc2)c(Cl)cc1NC(=O)c1cc(I)cc(I)c1O` (centres unmarked) [Closantel, closantel, reference compound] the CC50 [4] was 75 µM, the IC50 [1] was 2.24 µM and the “inhibition in the GroEL/ES-mediated refolding assays (in words)” value [1] was “potent GroEUES inhibitors”. The IC50 [1, 6] was 2.2 µM.

In the case of `O=C(Nc1cccc(Cl)c1)c1cc(Br)ccc1O` [Compound 11, 5-Bromo-N-(3-chlorophenyl)-2-hydroxybenzamide], the IC50 [1] is reported as > 100 µM, the “log(IC50) GroEL/ES-dMDH Refolding” value [1, 5] is reported as >2 and the EC50 ([2]; ATCC25923, 24 h) is reported as 0.44 µM.

In the case of `O=C(Nc1ccc(Sc2nc3ccccc3s2)c(Cl)c1)c1cccc(Br)c1O` [Compound 2, N-(4-(Benzo[d]thiazol-2-ylthio)-3-chlorophenyl)-3-bromo-2-hydroxybenzamide], the “inhibition in the GroEL/ES-mediated refolding assays (in words)” value [1] is reported as “moderate to potent inhibitors”, the “log(IC50) GroEL/ES-dMDH Refolding” value [1, 5] is reported as 0.98 ± 0.23 and the IC50 [1, 6] is reported as 9.5 µM. The EC50 ([2]; ATCC25923, 24 h) was 1 µM.

For `CN[C@H](CC(C)C)C(=O)N[C@H]1C(=O)N[C@@H](CC(N)=O)C(=O)N[C@H]2C(=O)N[C@H]3C(=O)N[C@H](C(=O)N[C@H](C(=O)O)c4cc(O)cc(O)c4-c4cc3ccc4O)[C@H](O)c3ccc(c(Cl)c3)Oc3cc2cc(c3O[C@@H]2O[C@H](CO)[C@@H](O)[C@H](O)[C@H]2O[C@H]2C[C@](C)(N)[C@H](O)[C@H](C)O2)Oc2ccc(cc2Cl)[C@H]1O` [Vancomycin, vancomycin, reference compound], the CC50 [3] was > 100 µM, the CC50 [4] was > 100 µM and the IC50 [1] was > 100 µM. The “log(IC50) GroEL/ES-dMDH Refolding” value [1, 5] was >2 and the EC50 ([2]; ATCC25923, 24 h) was 0.54 µM.

In the case of `O=C(Nc1ccc(Sc2nc3ccccc3s2)cc1)c1cc(Br)cc(Br)c1O` [Compound 5, N-(4-(Benzo[d]thiazol-2-ylthio)phenyl)-3,5-dibromo-2-hydroxybenzamide], the “log(IC50) GroEL/ES-dMDH Refolding” value [1, 5] is reported as 0.43 ± 0.19, the IC50 [1, 6] is reported as 2.7 µM and the EC50 ([2]; ATCC25923, 24 h) is reported as 0.54 µM.

For `O=C(Nc1cccc(Cl)c1)c1cc(Br)cc(Br)c1O` [Compound 9, 3,5-Dibromo-N-(3-chlorophenyl)-2-hydroxybenzamide], the CC50 [3] was 9.2 µM, the CC50 [4] was 18 µM and the “log(IC50) GroEL/ES-dMDH Refolding” value [1, 5] was 1.38 ± 0.15. For the same compound, the IC50 [1, 6] was 24 µM.

`O=C(Nc1ccccc1)c1ccccc1O` [Compound 16, 2-Hydroxy-N-phenylbenzamide] was tested, and the CC50 [3] was 68 µM, the CC50 [4] was > 100 µM and the “log(IC50) GroEL/ES-dMDH Refolding” value [1, 5] was >2. For the same compound, the IC50 [1, 6] was > 100 µM.

For `O=C(Nc1ccc(Sc2nc3ccccc3s2)cc1)c1ccccc1O` [Compound 8, N-(4-(Benzo[d]thiazol-2-ylthio)phenyl)-2-hydroxybenzamide], the “selectivity for E. coli GroEL/ES over human HSP60/10 (in words)” value ([1]; GroEL/ES-dMDH vs HSP60/10-dMDH IC50) was “selectively inhibit E. coli GroEUES over human HSP60/10”, the “log(IC50) GroEL/ES-dMDH Refolding” value [1, 5] was 1.60 ± 0.26 and the IC50 [1, 6] was 40 µM. For the same compound, the EC50 ([2]; ATCC25923, 24 h, media with 0.5% glucose, crystal violet A595) was 0.91 µM.

Reference: patent US20210395210A1, “INHIBITION OF BACTERIAL CHAPERONIN SYSTEMS” (THE TRUSTEES OF INDIANA UNIVERSITY, priority 2018, published 2021)
